Measured values reported in US20230181580A1, “TREATMENT OF PROLIFERATIVE DISEASES OF THE CNS” (AUCENTRA THERAPEUTICS PTY LTD, priority 2020, published 2023).
pKi: −log10 of the molar value.

What was measured:
PANC1 = experiment: MTT proliferation assay, pancreas; type: cell-based; settings: Homo sapiens, PANC-1, 72 h, read-out: Antiproliferative activity GI50 PANC1
Excerpt: (§1) Representative compounds from Example 1, were subjected to standard MTT (3-(4,5-dimethylthiazol-2-yl)-2,5-diphenyltetrazolium bromide) and resazurin assays on solid tumour cell lines (including GBM cell lines) and leukemia cell lines, respectively, as previously reported (Wang S et al., J Med Chem 47:1662-1675, 2004; and Diab S. et al. CheMedChem 9:962-972, 2014).

MB453 = experiment: MTT proliferation assay, breast; type: cell-based; settings: 72 h, read-out: Antiproliferative activity GI50 MB453
Excerpt: as §1

T98G = experiment: MTT proliferation assay, glioblastoma; type: cell-based; settings: Homo sapiens, 72 h, read-out: Antiproliferative activity GI50 T98G
Experimental: All three GBM cell lines used in this example, namely U87, U251 and T98G, were cultured in Eagle's Minimum Essential Medium (EMEM) with 10% fetal bovine serum in 75 cm^2 flasks at 37° C. and 5% CO2. All cell lines were confirmed to be mycoplasma-free prior to any experiment setup.
as §1

CDK2/A = CDK2/A (Homo sapiens, UniProt P24941); experiment: CDK kinase inhibition assay (radiometric / ADP Glo); type: biochemical
Experimental: (§2) Eurofins Pharma Discovery or Reaction Biology Corporation Kinase Profiler services were used to measure inhibition of CDKs and other kinases by radiometric assay (RIA). Inhibition of CDK4/Cyclin D1, CDK6/Cyclin D3 and CDK9/T1 were also determined in-house using ADP Glo Kinase assays (Promega Corporation, Madison Wis., United States of America). Briefly, the kinase reaction for CDK4/Cyclin D1 and CDK6/Cyclin D3 was performed with kinase reaction buffer ([…] Tris base pH 7.5, 20 mM MgCl2, 0.4 mM DTT), 0.1 mg/ml BSA and RB-CTF substrate (retinoblastoma protein1 C-terminal fraction). For CDK9/CyclinT1, the kinase reaction was performed with standard assay buffer and Kinase Dilution Buffer and RBER-IRStide substrate. Serial dilutions of 1:3 were prepared for test compounds for 10 concentrations (from 10 μM to 0.5 nM). The kinase reactions were started by addition of ATP, incubated for 40 min at 37° C. and then stopped by adding 10 μL of ADP Glo reagent. After incubation at room temperature (RT) in the dark for 40 min, 20 μL of kinase detection reagent was added per well and incubated for 40 min. Luminescence was measured using an EnVision Multilabel plate reader (PerkinElmer, Buckinghamshire, United Kingdom). Positive and negative controls were performed in the presence and absence of CDK kinases, respectively. Half-maximal inhibition (IC50) values were calculated using a 4-parameter logistic non-linear regression model with Graphpad prism (Version 6.0). Apparent inhibition constants (Ki) values were calculated from Km (ATP) and IC50 values for the respective kinases.

CDK7/H = CDK7/H (Homo sapiens, UniProt P50613); experiment: as above; type: biochemical
Experimental: as §2

CDK9/T1 = CDK9/T1 (Homo sapiens, UniProt P50750); experiment: as above; type: biochemical
Experimental: as §2

CDK1/B = CDK1/B (Homo sapiens, UniProt P06493); experiment: as above; type: biochemical
Experimental: as §2

Sequence of CDK7/H (P50613 whole entry): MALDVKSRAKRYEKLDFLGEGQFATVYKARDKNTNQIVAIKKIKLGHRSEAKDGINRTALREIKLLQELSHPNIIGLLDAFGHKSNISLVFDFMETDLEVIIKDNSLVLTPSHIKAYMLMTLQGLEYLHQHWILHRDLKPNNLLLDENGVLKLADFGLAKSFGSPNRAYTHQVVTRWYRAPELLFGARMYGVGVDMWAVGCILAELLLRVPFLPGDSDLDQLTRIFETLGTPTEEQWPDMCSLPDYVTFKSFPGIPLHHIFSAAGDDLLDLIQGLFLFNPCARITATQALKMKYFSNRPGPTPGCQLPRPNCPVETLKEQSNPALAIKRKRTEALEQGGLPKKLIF
Sequence of CDK7/H (P51946 whole entry partner): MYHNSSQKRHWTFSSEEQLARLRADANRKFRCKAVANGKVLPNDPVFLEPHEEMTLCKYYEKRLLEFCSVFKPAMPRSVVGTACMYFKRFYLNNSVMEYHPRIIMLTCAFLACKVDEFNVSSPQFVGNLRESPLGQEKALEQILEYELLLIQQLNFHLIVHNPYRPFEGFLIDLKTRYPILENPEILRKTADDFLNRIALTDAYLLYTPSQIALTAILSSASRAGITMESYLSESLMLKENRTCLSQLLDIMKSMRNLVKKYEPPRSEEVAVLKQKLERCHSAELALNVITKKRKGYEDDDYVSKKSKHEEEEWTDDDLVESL
Sequence of CDK7/H (P51948 whole entry partner): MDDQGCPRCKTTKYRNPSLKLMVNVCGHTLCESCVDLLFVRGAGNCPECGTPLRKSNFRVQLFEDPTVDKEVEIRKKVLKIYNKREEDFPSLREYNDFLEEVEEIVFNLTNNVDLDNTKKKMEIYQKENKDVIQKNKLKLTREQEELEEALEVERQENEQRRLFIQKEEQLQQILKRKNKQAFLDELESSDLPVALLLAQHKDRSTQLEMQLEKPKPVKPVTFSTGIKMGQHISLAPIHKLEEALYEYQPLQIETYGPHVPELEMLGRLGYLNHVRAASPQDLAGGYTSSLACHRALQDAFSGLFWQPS
Sequence of CDK9/T1 (P50750 whole entry): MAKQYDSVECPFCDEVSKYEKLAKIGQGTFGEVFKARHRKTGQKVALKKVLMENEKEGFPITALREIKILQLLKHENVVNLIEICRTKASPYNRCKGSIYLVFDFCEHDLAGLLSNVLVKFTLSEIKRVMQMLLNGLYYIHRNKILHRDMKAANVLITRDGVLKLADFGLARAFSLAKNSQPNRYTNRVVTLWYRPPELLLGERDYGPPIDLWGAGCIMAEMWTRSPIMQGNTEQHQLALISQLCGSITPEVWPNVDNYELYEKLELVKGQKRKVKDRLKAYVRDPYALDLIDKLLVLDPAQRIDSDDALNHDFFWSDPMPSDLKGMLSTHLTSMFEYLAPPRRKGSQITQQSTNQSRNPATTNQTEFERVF
Sequence of CDK9/T1 (O60563 whole entry partner): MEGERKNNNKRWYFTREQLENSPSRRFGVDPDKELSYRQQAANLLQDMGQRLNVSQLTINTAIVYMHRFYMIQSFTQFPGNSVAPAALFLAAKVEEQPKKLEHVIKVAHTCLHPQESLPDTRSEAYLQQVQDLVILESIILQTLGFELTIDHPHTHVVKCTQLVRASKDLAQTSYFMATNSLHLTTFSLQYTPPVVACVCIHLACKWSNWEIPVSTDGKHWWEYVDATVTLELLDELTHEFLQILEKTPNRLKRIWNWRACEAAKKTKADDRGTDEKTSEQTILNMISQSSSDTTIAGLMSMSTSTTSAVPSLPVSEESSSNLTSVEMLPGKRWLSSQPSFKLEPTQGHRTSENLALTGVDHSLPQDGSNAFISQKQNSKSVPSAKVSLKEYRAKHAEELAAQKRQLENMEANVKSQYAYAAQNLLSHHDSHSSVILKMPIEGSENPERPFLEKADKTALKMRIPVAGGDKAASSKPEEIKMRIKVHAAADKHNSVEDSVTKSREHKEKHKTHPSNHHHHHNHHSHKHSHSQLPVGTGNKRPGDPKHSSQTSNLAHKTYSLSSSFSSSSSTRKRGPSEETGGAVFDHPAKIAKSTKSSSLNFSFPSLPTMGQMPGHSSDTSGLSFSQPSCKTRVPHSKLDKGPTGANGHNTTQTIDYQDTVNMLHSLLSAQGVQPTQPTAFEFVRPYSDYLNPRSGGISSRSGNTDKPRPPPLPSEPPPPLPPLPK
Sequence of CDK1/B (P06493 whole entry): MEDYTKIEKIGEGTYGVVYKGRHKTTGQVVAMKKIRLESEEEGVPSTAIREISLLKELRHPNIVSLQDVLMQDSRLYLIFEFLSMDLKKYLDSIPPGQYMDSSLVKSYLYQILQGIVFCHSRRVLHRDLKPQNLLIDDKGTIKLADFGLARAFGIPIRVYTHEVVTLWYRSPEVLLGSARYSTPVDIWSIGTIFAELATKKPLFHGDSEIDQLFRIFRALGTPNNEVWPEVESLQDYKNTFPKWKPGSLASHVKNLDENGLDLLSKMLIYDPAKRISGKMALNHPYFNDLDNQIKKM
Sequence of CDK1/B (P14635 whole entry partner): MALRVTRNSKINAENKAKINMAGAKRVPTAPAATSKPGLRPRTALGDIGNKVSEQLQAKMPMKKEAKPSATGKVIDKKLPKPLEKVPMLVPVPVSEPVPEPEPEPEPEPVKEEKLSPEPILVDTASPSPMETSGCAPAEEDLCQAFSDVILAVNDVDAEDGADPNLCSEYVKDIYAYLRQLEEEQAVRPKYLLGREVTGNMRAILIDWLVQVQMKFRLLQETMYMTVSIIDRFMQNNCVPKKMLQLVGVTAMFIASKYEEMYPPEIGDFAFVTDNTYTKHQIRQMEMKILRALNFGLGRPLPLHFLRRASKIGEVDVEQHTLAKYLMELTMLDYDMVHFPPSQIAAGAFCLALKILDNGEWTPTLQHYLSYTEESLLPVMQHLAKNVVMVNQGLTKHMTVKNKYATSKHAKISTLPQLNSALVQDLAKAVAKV

CNc1nc(C)c(-c2nc(Nc3ccc(N4CCC(N(C)C)CC4)cn3)ncc2F)s1 [Compound 1, 5-(2-((5-(4-(dimethylamino)piperidin-1-yl)pyridin-2-yl)amino)-5-fluoropyrimidin-4-yl)-N,4-dimethylthiazol-2-amine] was tested, and the GI50 (PANC1) was 1.32 µM, the GI50 (MB453) was 0.33 µM and the GI50 (T98G) was 2.96 µM. The pKi (CDK2/A) was under 6.00, the pKi (CDK7/H) was under 6.00 and the pKi (CDK9/T1) was under 6.00. For the same compound, the pKi (CDK1/B) was under 6.00.
